Consider eleven compounds from ChEMBL document CHEMBL1201862, “PubChem BioAssay data set” (2004).

Structures are written as SMILES.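 A five-concentration, 48-hour dose response in 96-well plates underlies each endpoint, interpolated linearly between surrounding concentrations. GI50 is the concentration that inhibits growth by half.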 The source made the active and inactive calls. Cut-off read from the data, not from the text of the source: active = GI50 up to about 1.1 µM and inactive = higher.

Some test systems named below: MDA-N; HOP-62; SK-MEL-28; SNB-75; A549; NCI-H460; NCI/ADR-RES; COLO 205; UACC-257; EKVX; SK-OV-3; OVCAR-3; 786-0; OVCAR-8; SF-539; NCI-H23; BT-549; SK-MEL-2; K562; PC-3.
Common to all, as to test: growth of human tumour cells (NCI), 48 h

Consider `CCCCCCCCCC(=O)NC(CCC(=O)N(CCNC(=O)c1nc(-c2ccccc2)oc1-c1ccccc1)Cc1ccccc1)C(=O)O` (configuration not stated), for which the GI50 is 18.4 µM (inactive) in the experiment on MDA-N; 16.4 µM (inactive) in the experiment on HOP-62; 22.3 µM (inactive) in the experiment with SK-MEL-28; 14.5 µM (inactive) in the experiment with SNB-75; 17.4 µM (inactive) in the experiment on A549; 38.1 µM (inactive) in the experiment on NCI-H460. Besides, the GI50 in the experiment on NCI/ADR-RES was 16.6 µM (inactive); in the experiment on COLO 205 it was 19.6 µM (inactive); in the experiment on UACC-257 it was 23.4 µM (inactive); in the experiment with EKVX, 16.6 µM (inactive); in the experiment with SK-OV-3 it was 16.9 µM (inactive); in the experiment on OVCAR-3 it was 16.3 µM (inactive). The GI50 in the experiment on 786-0 was 17.7 µM (inactive); in the experiment on OVCAR-8, 17.5 µM (inactive); with SF-539 it was 24 µM (inactive); in the experiment with NCI-H23, 17.9 µM (inactive); in the experiment with BT-549 it was 19.3 µM (inactive).
Turning to `Cc1ccc([N+](=O)[O-])c2c(NCCC[N+](C)(C)[O-])c3ccccc3nc12`, the GI50 in the experiment on HOP-62 is 2.56 µM (inactive); in the experiment on SK-MEL-28, 3.68 µM (inactive); in the experiment on SNB-75, 0.655 µM (active); in the experiment on A549 it was 1.53 µM (inactive); in the experiment with NCI-H460, 0.716 µM (active); in the experiment on NCI/ADR-RES, > 95.3 µM (inactive). Also, the GI50 in the experiment on COLO 205 is 1.02 µM (active); in the experiment on UACC-257, 2.41 µM (inactive); with SK-MEL-2, 0.773 µM (active); with EKVX it was 1.11 µM (active); in the experiment with SK-OV-3, 3.86 µM (inactive); in the experiment with OVCAR-3, 2.19 µM (inactive). The GI50 in the experiment with 786-0 is 2.02 µM (inactive); in the experiment with OVCAR-8, 4.75 µM (inactive); in the experiment on SF-539 it was 2.6 µM (inactive); with K562, 1.52 µM (inactive); in the experiment on NCI-H23, 0.573 µM (active); in the experiment with BT-549, 1.5 µM (inactive). The GI50 in the experiment on PC-3 was 0.755 µM (active).
With `Cc1cccc(/N=N/c2ccc(/N=N/c3c(O)ccc4ccccc34)cc2C)c1`, the GI50 in the experiment with HOP-62 is 22.4 µM (inactive); in the experiment with SK-MEL-28, > 100 µM (inactive); in the experiment with SNB-75, 0.144 µM (active); in the experiment with A549, 80 µM (inactive); in the experiment with NCI-H460, > 100 µM (inactive); with NCI/ADR-RES it was 13.4 µM (inactive). The GI50 is > 100 µM (inactive) in the experiment on COLO 205; > 100 µM (inactive) with UACC-257; > 100 µM (inactive) in the experiment on SK-MEL-2; 84.7 µM (inactive) with EKVX; 28.4 µM (inactive) with SK-OV-3; > 100 µM (inactive) with OVCAR-3. For the same compound, the GI50 in the experiment on 786-0 is 83.6 µM (inactive); in the experiment with OVCAR-8, 7.05 µM (inactive); in the experiment on SF-539, 36.2 µM (inactive); in the experiment with K562, > 100 µM (inactive); with NCI-H23, > 100 µM (inactive); with BT-549, > 100 µM (inactive). Besides, the GI50 in the experiment on PC-3 was 88.3 µM (inactive).
In the case of `CC(C)OC(=O)NNc1cccc(Cl)c1`, the GI50 with MDA-N, with HOP-62, in the experiment with SK-MEL-28, with SNB-75, with A549 and in the experiment with NCI-H460 was > 100 µM (inactive) each time. The GI50 with NCI/ADR-RES is > 100 µM (inactive); with COLO 205 it was > 100 µM (inactive); in the experiment on UACC-257, > 100 µM (inactive); with SK-MEL-2, 19.4 µM (inactive); with EKVX it was > 100 µM (inactive); in the experiment on SK-OV-3, > 100 µM (inactive). Also, the GI50 is > 100 µM (inactive) with OVCAR-3; > 100 µM (inactive) in the experiment with 786-0; > 100 µM (inactive) in the experiment on OVCAR-8; > 100 µM (inactive) in the experiment on SF-539; 47.3 µM (inactive) in the experiment with K562; > 100 µM (inactive) in the experiment with NCI-H23. Moreover, the GI50 in the experiment on PC-3 is > 100 µM (inactive).
As to `CCOC(=O)c1cc(-c2ccc(OC)cc2)c([N+](=O)[O-])n1C`, the GI50 in the experiment with MDA-N is 8.91 µM (inactive); in the experiment with SNB-75 it was > 10 µM (inactive); in the experiment on A549, > 10 µM (inactive); in the experiment with NCI-H460, > 10 µM (inactive); in the experiment with NCI/ADR-RES it was > 10 µM (inactive); in the experiment on UACC-257, > 10 µM (inactive). The GI50 with SK-MEL-2, with EKVX, in the experiment with OVCAR-3, in the experiment on 786-0, in the experiment on OVCAR-8 and in the experiment with SF-539 was > 10 µM (inactive) in each case. The GI50 with K562 was 6.84 µM (inactive); in the experiment with NCI-H23, > 10 µM (inactive); in the experiment with BT-549, > 10 µM (inactive).
With `O=C(O)CCC1NC(/C(=C/c2ccccc2O)NC(=O)c2ccccc2)OC1=O` (configuration not stated), the GI50 in the experiment on HOP-62 is 17.5 µM (inactive); in the experiment with SK-MEL-28, > 100 µM (inactive); in the experiment with SNB-75 it was 23.2 µM (inactive); in the experiment on A549, > 100 µM (inactive); with NCI-H460, > 100 µM (inactive); with NCI/ADR-RES it was 88.5 µM (inactive). Also, the GI50 in the experiment on COLO 205 is > 100 µM (inactive); in the experiment on UACC-257, 27.5 µM (inactive); in the experiment on SK-MEL-2 it was > 100 µM (inactive); in the experiment with EKVX, > 100 µM (inactive); with SK-OV-3, 44.2 µM (inactive); in the experiment on OVCAR-3, > 100 µM (inactive). The GI50 was 46.7 µM (inactive) in the experiment on 786-0; 46.8 µM (inactive) in the experiment with OVCAR-8; 95.3 µM (inactive) in the experiment on SF-539; > 100 µM (inactive) in the experiment on K562; > 100 µM (inactive) with NCI-H23; 72.6 µM (inactive) with BT-549. In addition, the GI50 in the experiment with PC-3 is > 100 µM (inactive).
As to `NNC(=O)c1cccc2c1Oc1ccccc1S2`, the GI50 in the experiment with HOP-62 was 95.9 µM (inactive); in the experiment on SK-MEL-28, > 100 µM (inactive); with SNB-75 it was 50.6 µM (inactive); with NCI-H460, > 100 µM (inactive); in the experiment with NCI/ADR-RES, 83.9 µM (inactive); in the experiment with COLO 205 it was > 100 µM (inactive). In addition, the GI50 in the experiment on UACC-257 is > 100 µM (inactive); in the experiment with SK-MEL-2, > 100 µM (inactive); in the experiment with EKVX, 23.8 µM (inactive); with SK-OV-3, 65.2 µM (inactive); in the experiment with 786-0, > 100 µM (inactive); in the experiment with OVCAR-8, 98.6 µM (inactive). Further, the GI50 was > 100 µM (inactive) with SF-539; > 100 µM (inactive) in the experiment with K562; > 100 µM (inactive) in the experiment on NCI-H23; 97.3 µM (inactive) with BT-549; > 100 µM (inactive) with PC-3.
With `[O-][n+]1onc2c1CCC(=N\O)/C2=N/Nc1ccccc1`, the GI50 with MDA-N, in the experiment with HOP-62, in the experiment with SK-MEL-28, in the experiment on SNB-75, in the experiment on A549 and in the experiment on NCI-H460 was > 100 µM (inactive) throughout. The GI50 with NCI/ADR-RES, with COLO 205, in the experiment on UACC-257, in the experiment with SK-MEL-2, with EKVX and in the experiment with SK-OV-3 was > 100 µM (inactive) in each case. In addition, the GI50 with OVCAR-3, in the experiment on 786-0, with OVCAR-8, with SF-539, in the experiment on K562 and with NCI-H23 was > 100 µM (inactive) throughout. In addition, in the experiment with PC-3, the GI50 was > 100 µM (inactive).
For `CC1(C)CC2=NOS3=C2C(=NO3)C1c1ccccn1` (configuration not stated), the GI50 was 30.9 µM (inactive) with MDA-N; > 100 µM (inactive) with HOP-62; > 100 µM (inactive) in the experiment on SK-MEL-28; > 100 µM (inactive) with SNB-75; 83.2 µM (inactive) in the experiment on A549; 33.7 µM (inactive) in the experiment with NCI-H460. The GI50 in the experiment with NCI/ADR-RES was > 100 µM (inactive); with COLO 205, 31.2 µM (inactive); in the experiment on UACC-257, 28.9 µM (inactive); in the experiment on SK-MEL-2 it was > 100 µM (inactive); in the experiment with EKVX it was > 100 µM (inactive); in the experiment on SK-OV-3, > 100 µM (inactive). The GI50 in the experiment on OVCAR-3 was 31 µM (inactive); with 786-0, 34.7 µM (inactive); in the experiment with OVCAR-8, 39.5 µM (inactive); in the experiment with SF-539, 64 µM (inactive); with K562, 24 µM (inactive); with NCI-H23 it was > 100 µM (inactive). Besides, the GI50 with PC-3 is > 100 µM (inactive).
Consider `Cc1ccc(-n2cc(-c3ccc(Cl)cc3)c3c(NN)ncnc32)cc1`, for which the GI50 in the experiment with MDA-N was 8.83 µM (inactive); in the experiment with HOP-62, 2.43 µM (inactive); with SK-MEL-28 it was 3.66 µM (inactive); in the experiment on SNB-75 it was 1.39 µM (inactive); in the experiment with A549 it was 3.26 µM (inactive); in the experiment on NCI-H460, 3.4 µM (inactive). Further, the GI50 with NCI/ADR-RES was 3.64 µM (inactive); in the experiment with COLO 205 it was 1.72 µM (inactive); in the experiment on UACC-257, 3.97 µM (inactive); with SK-MEL-2, 15.1 µM (inactive); in the experiment on EKVX, 3.3 µM (inactive); in the experiment with SK-OV-3, 5.14 µM (inactive). Also, the GI50 is 0.357 µM (active) in the experiment on OVCAR-3; 2.55 µM (inactive) in the experiment with 786-0; 3.24 µM (inactive) with OVCAR-8; 2.51 µM (inactive) in the experiment with SF-539; 2.88 µM (inactive) in the experiment with K562; 3.04 µM (inactive) in the experiment on NCI-H23. Moreover, the GI50 in the experiment on PC-3 is 5.55 µM (inactive).
Regarding `c1ccc(C[N+]23C(CC[C@H]2c2ccccc2)CC[C@H]3c2ccccc2)cc1` (some centres not stated), the GI50 in the experiment on MDA-N is 21.2 µM (inactive); in the experiment with HOP-62 it was 33.5 µM (inactive); with SK-MEL-28 it was 34.6 µM (inactive); in the experiment with SNB-75, 21.4 µM (inactive); in the experiment on A549, 36.6 µM (inactive); in the experiment with COLO 205 it was 11.2 µM (inactive). Besides, the GI50 in the experiment with UACC-257 was 6.24 µM (inactive); in the experiment with SK-MEL-2, 29.9 µM (inactive); in the experiment with EKVX, 24 µM (inactive); with SK-OV-3, 67.9 µM (inactive); in the experiment on OVCAR-3, 14.3 µM (inactive); with 786-0, 32.4 µM (inactive). Also, the GI50 is 30.2 µM (inactive) in the experiment with OVCAR-8, 9.38 µM (inactive) with K562 and 26.7 µM (inactive) in the experiment with PC-3.
